Experimental data taken from patent US20110207751A1, “HETEROCYCLIC COMPOUNDS AND USES AS ANTICANCER AGENTS” (priority 2010, published 2011).
Structures can show the parent of a compound that is named as a salt.

Key:
[1] = tested on: microtubule network in A549 cells; assay: Microtubule organization in A549 cells; assay type: cell-based, human; details: 20 hr treatment
[2] = tested on: NCI-H460 cells (human large cell lung carcinoma cell line); assay: Inhibition of cell proliferation, xCelligence cell index; assay type: cell-based; details: 72 hr post compound treatment, read-out: calculated IC50
Text: (§1) The biological activity of compounds disclosed herein was monitored and profiled using the Real-Time Cell Electronic Sensing (RT-CES®) system from ACEA Biosciences, Inc. The RT-CES system utilizes cell-substrate impedance technology to monitor cellular behavior inside tissue culture wells in a microtiter plate format. The technology features in the integration of molecular and cell biology with microelectronics and is based on the electronic detection of biological assay process. The details of this cell electronic sensing technology and associated devices, systems and methods of use are described in U.S. Pat. No. 7,167,585; U.S. Pat. No. 7,468,255; PCT publication number WO 2004/010102; U.S. Pat. No. 7,470,533; and U.S. Pat. No. 7,459,303, each of which is incorporated herein by reference. Additional details of RT-CES technology are further disclosed in U.S. Pat. No. 7,468,255.
(§2) For measurement of cell-substrate or cell-electrode impedance using RT-CES technology, microelectrodes having appropriate geometries are fabricated onto the bottom surfaces of microtiter plate or similar device, facing into the wells. […] When there are changes to the biological status of the cells analogue electronic readout signals are measured automatically and in real time, and are converted to digital signals for processing and for analysis. In a RT-CES system, a cell index (arbitrary representation of change in impedance) is automatically derived and provided based on measured electrode impedance values. […]
(§3) To quantify cell status based on the measured cell-electrode impedance, a parameter termed Cell Index is derived. Cell Index is a quantitative measure of the status of the cells in an electrode-containing well. […]
(§4) NCI-H460 cells (human large cell lung carcinoma cell line) were seeded into wells of 96 well E-plate devices (Roche) with an initial seeding density of 5000 cells per well and were pre-incubated in incubator under standard cell culture condition for about 24 hours. […] The cell status was monitored prior to and after the compound addition using xCelligence system (Roche). […]

[3] = tested on: B×PC3 cells (human pancreatic cancer cell line); assay: as above; assay type: cell-based; details: 72 hr post compound treatment, read-out: calculated IC50
Text: as §1, §2, §3
as §4, with “B×PC3” for “NCI-H460”, “pancreatic cancer” for “large cell lung carcinoma”

[4] = tested on: GTL16 cells (human gastric cancer cell line); assay: as above; assay type: cell-based; details: GTL 16, 72 hr post compound treatment, read-out: calculated IC50
Text: as §1
For measurement of cell-substrate or cell-electrode impedance using RT-CES technology, microelectrodes having appropriate geometries are fabricated onto the bottom surfaces of microtiter plate or similar device, facing into the wells. Cells are introduced into the wells of the devices, and make contact to and attach to the electrode surfaces. The presence, absence or change of properties of cells affects the electronic and ionic passage on the electrode sensor surfaces. Measuring the impedance between or among electrodes provides important information about biological status of cells present on the sensors. When there are changes to the biological status of the cells analogue electronic readout signals are measured automatically and in real time, and are converted to digital signals for processing and for analysis. In a RT-CES system, a cell index (arbitrary representation of change in impedance) is automatically derived and provided based on measured electrode impedance values. […]
as §3

[5] = tested on: H596 cells (human adenosquamous lung carcinoma cell line); assay: as above; assay type: cell-based; details: NCI-H596, 72 hr post compound treatment, read-out: calculated IC50
Text: as §1, §2, §3
as §4, with “H596” for “NCI-H460”, “adenosquamous” for “large cell”

[6] = tested on: H2347 cells (human non-small cell lung cancer cell line); assay: as above; assay type: cell-based; details: NCI-H2347, 72 hr post compound treatment, read-out: calculated IC50
Text: The biological activity of compounds disclosed herein was monitored and profiled using the Real-Time Cell Electronic Sensing (RT-CES®) system from ACEA Biosciences, Inc. The RT-CES system utilizes cell-substrate impedance technology to monitor cellular behavior inside tissue culture wells in a microtiter plate format. The technology features in the integration of molecular and cell biology with microelectronics and is based on the electronic detection of biological assay process. […]
as §2, §3

`CC(=O)O[C@H]1C(=O)[C@@]2(C)[C@H]([C@H](OC(=O)c3ccccc3)[C@]3(O)C[C@H](OC(=O)[C@H](O)[C@@H](NC(=O)c4ccccc4)c4ccccc4)C(C)=C1C3(C)C)[C@]1(OC(C)=O)CO[C@@H]1C[C@@H]2O` [paclitaxel] was tested, and the “effect on microtubule organization” value [1] was “microtubule polymerization with an increasing in the density of cellular microtubules”, the IC50 [2] was 2.68 nM and the IC50 [3] was 8.86 nM. It also gave an IC50 [4] of 1.02 nM and an IC50 [5] of 12.5 nM.

With `CC[C@]1(O)C[C@H]2CN(CCc3c([nH]c4ccccc34)[C@@](C(=O)OC)(c3cc4c(cc3OC)N(C=O)[C@H]3[C@@](O)(C(=O)OC)[C@H](OC(C)=O)[C@]5(CC)C=CCN6CC[C@]43[C@@H]65)C2)C1` [vincristine] the IC50 [2] was 10.4 nM, the IC50 [3] was 4.06 nM and the IC50 [6] was 5.05 nM. It also gave an IC50 [4] of 3.75 nM and an IC50 [5] of 36.9 nM.

In the case of `CCc1ccc(Nc2nc(-c3c(C)nc4sccn34)cs2)cc1` [COMPOUND O, 2-(4-ethylphenyl)amino-4-(6-methylimidazo[2,1-b]thiazol-5-yl)-thiazole monohydrobromide], the “effect on microtubule organization” value [1] is reported as “findings similar to those of vincristine-induced microtubule changes”, the IC50 [2] is reported as 10.9 nM and the IC50 [3] is reported as 6.6 nM. It also gave an IC50 [6] of 1.76 nM, an IC50 [4] of 67 nM and an IC50 [5] of 37.9 nM.
